Experimental data taken from ChEMBL document CHEMBL2146425, “Solid-phase synthesis and biological evaluation of Joro spider toxin-4 from Nephila clavata” (J Nat Prod, 2011).
pIC50: −log10 of the molar value.

Key:
[1] = target: Glutamate receptor 1 (Rattus norvegicus) (UniProt P19490); assay: Inhibition of rat GluA1 expressed in xenopus laevis oocytes assessed as inhibition of glutamate-evoked current at membrane potential of -60 mV at 100 uM by voltage-clamp electrophysiology; format: cell-based; conditions: Oocyte
[2] = target: Glutamate NMDA receptor; Grin1/Grin2a (Rattus norvegicus) (UniProt P35439+Q00959); assay: Inhibition of rat GluN1/2A expressed in xenopus laevis oocytes assessed as inhibition of glycine-evoked current at membrane potential of -60 mV at 100 uM by voltage-clamp electrophysiology; format: cell-based; conditions: Oocyte
Glutamate receptor 1 = Glutamate receptor 1 (Rattus norvegicus, UniProt P19490); assay: Inhibition of rat GluA1 expressed in xenopus laevis oocytes assessed as inhibition of glutamate-evoked current at membrane potential of -60 mV by voltage-clamp electrophysiology; format: cell-based, Oocyte
[3] = target: Glutamate NMDA receptor; Grin1/Grin2a (Rattus norvegicus, UniProt P35439+Q00959); assay: Inhibition of rat GluN1/2A expressed in xenopus laevis oocytes assessed as inhibition of glycine-evoked current at membrane potential of -60 mV by voltage-clamp electrophysiology; format: cell-based, Oocyte

Glutamate receptor 1 (Rattus norvegicus), sequence (P19490 whole entry): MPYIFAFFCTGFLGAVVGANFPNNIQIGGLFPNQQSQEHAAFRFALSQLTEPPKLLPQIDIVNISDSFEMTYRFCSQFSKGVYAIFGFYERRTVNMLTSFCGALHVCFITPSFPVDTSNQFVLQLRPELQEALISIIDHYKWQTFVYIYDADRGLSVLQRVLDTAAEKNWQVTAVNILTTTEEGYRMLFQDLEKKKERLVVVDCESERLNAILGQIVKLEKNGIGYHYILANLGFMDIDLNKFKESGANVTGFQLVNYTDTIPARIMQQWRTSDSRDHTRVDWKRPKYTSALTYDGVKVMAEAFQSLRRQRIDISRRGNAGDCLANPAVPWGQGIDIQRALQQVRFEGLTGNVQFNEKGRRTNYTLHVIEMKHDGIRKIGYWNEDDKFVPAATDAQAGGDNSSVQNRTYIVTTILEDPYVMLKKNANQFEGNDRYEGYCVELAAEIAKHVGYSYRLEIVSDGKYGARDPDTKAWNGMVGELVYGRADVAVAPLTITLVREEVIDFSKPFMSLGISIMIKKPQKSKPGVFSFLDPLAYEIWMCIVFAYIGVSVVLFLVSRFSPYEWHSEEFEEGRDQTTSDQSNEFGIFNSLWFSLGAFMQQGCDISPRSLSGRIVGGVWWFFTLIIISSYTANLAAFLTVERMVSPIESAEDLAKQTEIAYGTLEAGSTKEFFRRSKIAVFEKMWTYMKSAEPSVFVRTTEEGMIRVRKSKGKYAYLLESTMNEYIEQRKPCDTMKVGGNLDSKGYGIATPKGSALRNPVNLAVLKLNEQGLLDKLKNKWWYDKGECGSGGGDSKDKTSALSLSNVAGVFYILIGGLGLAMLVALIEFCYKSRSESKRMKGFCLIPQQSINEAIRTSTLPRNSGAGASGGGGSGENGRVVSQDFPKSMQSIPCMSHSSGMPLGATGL
Glutamate receptor 1, sequence (P19490 whole entry): as above

inhibition [1] | inhibition [2] | SMILES | pIC50 (Glutamate receptor 1) | pIC50 [3]
25% | 25% | N=C(N)NCCC[C@H](N)C(=O)N[C@@H](CCCN)C(=O)NCCCCCNC(=O)[C@H](CC(N)=O)NC(=O)Cc1ccc(O)cc1O |  | 
 |  | N=C(N)NCCC[C@H](N)C(=O)NCCCNCCCNCCCCCNC(=O)[C@H](CC(N)=O)NC(=O)Cc1ccc(O)cc1O | 7.11 | 7.13
